Laboratory results from patent publication US7253177B2, “Synthesis and antimalarial activity of pyrrolo[3,2-f]quinazoline-1,3-diamine derivatives” (United States of America as Represented by the Secretary of …, priority 2004, dated 2007).
“And” between values parts separate entries of the source, which are not always exact repeats. Identical values can stand only once.

Tested on: P. vivax AMRU-1 strain
Experiment: Antimalarial activity against P. vivax in Aotus monkey
Format: in vivo, Plasmodium vivax
Conditions: for # Monkey Cured/# Monkey Used, P. vivax: cured = parasitemia free for 100 days post treatment; for outcome against P. vivax at 1 and 3 mg/kg/day x3: po, antifolate-resistant clone with four DHFR mutations
Experimental: (e). Toxicity Study in Aotus monkey: Protocol: Two malaria double cured Aotus weighing 1027-695 grams respectively received single dose of 3 mg/kg orally of the two compounds 2b and 3e. The monkeys were weighed and pre-bleed for CBC and Chemistry (ALT, BUN, Creatinine) determination, and again three, seven and 15 days post treatment. Signs of toxicity such as anorexia, vomiting, diarrhea or behavior changes were recorded. […] (f). Antimalarial Activity against P. falciparum in Aotus monkey: Protocol: Six (6) malaria naive Aotus lemurinus lemurinus (weigh 787-978 grms) were divided into two groups of two Aotus each plus two controls (MN13177 male and MN 13153 male) and infected with 5×10^6 P. falciparum FVO malaria parasites with 1 ml of an appropriate dilution in RPMI media intravenously on the saphenous vein. When their parasitemia reached 5×10^4 parasites/ul, treatment was started. Giemsa-stained thick blood smears were prepared daily with a prick in the ear marginal vein and parasites enumerated by the Earle and Perez method. Group 1 Aotus received 3e at 1 mg/kg once a day×three days. Group 2 Aotus received 2b at 1 mg/kg once a day×three days. The monkeys were weight and pre-bled for CBC and Chemistry (ALT, BUN, Creatinine) determination, and on day 4 post-treatmetne (PT). Bleedings for Pk determinations were carried out on day 1 PT at time 0, 1 hr, 7:30 hr and 24 hr PT. Group 1 (receiving 3e) animals cleared the parasitemias on day 3 post treatment (PT) and remained negative up to 100 days PT. In group 2 (receiving 2b), one animal cleared on day 3 PT and the other one on day 4 PT remaining negative up to 100 days PT. […] (g). Antimalarial Activity against P. vivax in Aotus monkey: Protocol: Fourteen (14) P. falciparum cured Aotus l. lemurinus monkeys (male and female) (weight 700-925 grms) were infected intravenously with 5×10^6 parasites of the P. vivax AMRU-1 strain diluted in RPMI media obtained from a donor and divided into two larger groups of 6 monkeys each (Group I and Group II) (2 monkeys per dose level), that received 3e and 6 monkeys (2 monkeys per dose level) that received 2b daily at 0.5, 1.0 and 3 mg/kg/day for a total of 3 days. Two monkeys were left has untreated controls. Treatment started when parasitemia reached 5,000 parasites×cc/mm on day 6 PI. Daily food intake was documented. Daily Giemsa-stained thick blood smears were prepared from a prick in the marginal ear vein and parasites enumerated by the Earle and Perez method. The animals were weighed at weekly intervals. Blood samples for Pk determination were collected at the following time points as follows: Day 0: CBC and chemistry panel (ALT. Creatinine and BUN); Day 4: CBC and chemistry Panel. CBC and chemistry panels were done the day prior to first dose and 24 hours after last dose and at weekly intervals thereafter. […] The other monkeys received 1 and 3 mg/kg of 3e remained negative until day 100 PT. In Group II, all monkeys except for one that received 3 mg/kg of 2b failed treatment and were retreated on day 3 PT with 3e at either 0.25, 0.5 or 1 mg/kg for three days. In the monkeys that received re-treatment at 0.25 mg/kg, one cleared on day 4 PT but needed to be treated with Mefloquine on day 8 PT due to a low platelet count. The other animals that had not been cleared by day 6 PT were treated with Mefloquine. […] P. vivax is known to be very drug resistant to antifolates. (h). Presumptive Causal Prophylactic Test against P. cynomolgi in Rhesus monkey: Protocol: […]

| SMILES | activity against P. vivax at 0.5 and 1 mg/kg x3 | # Monkey Cured/# Monkey Used, P. vivax (0.5 mg/kg/day x 3 days) | # Monkey Cured/# Monkey Used, P. vivax (1 mg/kg/day x 3 days) | # Monkey Cured/# Monkey Used, P. vivax (3 mg/kg/day x 3 days, 3 mg/kg/day) | outcome against P. vivax at 1 and 3 mg/kg/day x3 | outcome against P. vivax at 0.5 mg/kg (0.5 mg/kg/day x 3 days, two monkeys) | # Monkey Cured/# Monkey Used, P. vivax (3 mg/kg/day x 3 days) | remained negative until day PT (P. vivax, 1 and 3 mg/kg x 3 days) [days] |
| --- | --- | --- | --- | --- | --- | --- | --- | --- |
| CCOC(=O)Nc1nc(NC(=O)OCC)c2c(ccc3c2ccn3Cc2ccccc2C(F)(F)F)n1 [Compound 2b] | not active | 0/2 | 0/2 | one out of two and 1/2 | less active |  |  |  |
| CC(=O)N(C(C)=O)c1nc(N(C(C)=O)C(C)=O)c2c(ccc3c2ccn3Cc2ccccc2C(F)(F)F)n1 [Compound 3e, 1,3-Bis(diacetylamino)-7-(2-trifluoromethyl)benzyl-7H-pyrrolo[3,2-f]quinazoline] |  | 0/2 | 2/2 |  | cured and 4/4 | suppressed the parasitemia but needed re-treatment on day 10 PT | 2/2 | 100 |
